In ChEMBL document CHEMBL5346943, “Discovery and Structural Optimization of Novel Quinolone Derivatives as Potent Irreversible Pan-Fibroblast Growth Factor Receptor Inhibitors for Treating Solid Tumors” (J Med Chem, 2023):
Values belong to the molecule of their own block, whether it stands above or below them.

Columns and labels:
[1] = Clearance in Sprague-Dawley rat measured at 2 mg/kg, iv for 0.083 to 24 hrs by LC-MS/MS analysis; type: ADME, organism-based; details: in vivo, time 0.083-24 hrs
[2] = MRT (0 to infinity) in Sprague-Dawley rat measured at 10 mg/kg, po for 0.083 to 24 hrs by LC-MS/MS analysis; type: ADME, organism-based; details: in vivo, time 0.083-24 hrs
[3] = Cmax in Sprague-Dawley rat measured at 2 mg/kg, iv for 0.083 to 24 hrs by LC-MS/MS analysis; type: ADME, organism-based; parameters: time upper 24 hrs, time lower 0.083 hrs, dose 2 mg/kg, route iv; details: in vivo
[4] = Oral bioavailability in Sprague-Dawley rat measured at 10 mg/kg for 0.083 to 24 hrs by LC-MS/MS analysis; type: ADME, organism-based; details: in vivo, time 0.083-24 hrs
[5] = Tmax in Sprague-Dawley rat measured at 10 mg/kg, po for 0.083 to 24 hrs by LC-MS/MS analysis; type: ADME, organism-based; details: in vivo, time 0.083-24 hrs
[6] = MRT (0 to t) in Sprague-Dawley rat measured at 10 mg/kg, po for 0.083 to 24 hrs by LC-MS/MS analysis; type: ADME, organism-based; details: in vivo, time 0.083-24 hrs
[7] = biological target: Fibroblast growth factor receptor 1 (Homo sapiens, UniProt P11362); assay: Inhibition of FGFR1 (unknown origin) incubated for 10 mins followed by substrate addition measured after 60 mins by ADP-Glo luminescence assay
[8] = AUC (0 to t) in Sprague-Dawley rat measured at 10 mg/kg, po for 0.083 to 24 hrs by LC-MS/MS analysis; type: ADME, organism-based; parameters: dose 10 mg/kg, time upper 24 hrs, time lower 0.083 hrs, route po; details: in vivo
[9] = AUC (0 to infinity) in Sprague-Dawley rat measured at 2 mg/kg, iv for 0.083 to 24 hrs by LC-MS/MS analysis; type: ADME, organism-based; parameters: time lower 0.083 hrs, dose 2 mg/kg, time upper 24 hrs, route iv; details: in vivo
[10] = MRT (0 to t) in Sprague-Dawley rat measured at 2 mg/kg, iv for 0.083 to 24 hrs by LC-MS/MS analysis; type: ADME, organism-based; details: in vivo, time 0.083-24 hrs
[11] = Half life in Sprague-Dawley rat measured at 2 mg/kg, iv for 0.083 to 24 hrs by LC-MS/MS analysis; type: ADME, organism-based; details: in vivo, time 0.083-24 hrs
[12] = C0 in Sprague-Dawley rat measured at 2 mg/kg, iv for 0.083 to 24 hrs by LC-MS/MS analysis; type: ADME, organism-based; details: in vivo, time 0.083-24 hrs
[13] = biological target: T1, Fibroblast growth factor receptor 4 (Homo sapiens, UniProt P22455); assay: Inhibition of FGFR4 (unknown origin) incubated for 10 mins followed by substrate addition measured after 60 mins by ADP-Glo luminescence assay
Target sequence in this assay (P22455 whole entry): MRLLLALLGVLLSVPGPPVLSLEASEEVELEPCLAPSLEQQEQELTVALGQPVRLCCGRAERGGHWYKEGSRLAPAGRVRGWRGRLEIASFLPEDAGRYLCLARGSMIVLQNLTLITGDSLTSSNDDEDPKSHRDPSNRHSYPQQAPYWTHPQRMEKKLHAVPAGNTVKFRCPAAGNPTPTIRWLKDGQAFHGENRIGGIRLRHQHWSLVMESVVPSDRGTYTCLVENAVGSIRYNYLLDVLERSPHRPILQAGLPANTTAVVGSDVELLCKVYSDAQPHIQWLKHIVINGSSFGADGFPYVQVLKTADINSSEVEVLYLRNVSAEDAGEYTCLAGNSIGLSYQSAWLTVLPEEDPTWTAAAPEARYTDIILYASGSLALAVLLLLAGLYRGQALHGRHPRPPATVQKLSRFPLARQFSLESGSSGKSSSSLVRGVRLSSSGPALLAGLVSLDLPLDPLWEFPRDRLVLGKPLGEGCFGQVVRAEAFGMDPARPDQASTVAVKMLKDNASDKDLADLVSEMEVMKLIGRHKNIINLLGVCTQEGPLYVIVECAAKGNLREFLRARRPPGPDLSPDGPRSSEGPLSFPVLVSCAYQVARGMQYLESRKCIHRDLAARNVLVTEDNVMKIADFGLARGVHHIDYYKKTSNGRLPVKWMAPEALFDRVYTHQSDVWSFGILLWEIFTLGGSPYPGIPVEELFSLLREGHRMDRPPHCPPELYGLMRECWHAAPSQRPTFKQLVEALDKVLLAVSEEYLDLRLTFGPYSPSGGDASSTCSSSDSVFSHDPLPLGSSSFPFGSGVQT

[14] = Permeability of the compound at 10 uM preincubated in acceptor compartment for 16 hrs followed by 16 hrs incubation in donor compartment by PAMPA based LC-MS/MS analysis; type: ADME; details: time 32 hrs, read-out: permeability
[15] = Cmax in Sprague-Dawley rat measured at 10 mg/kg, po for 0.083 to 24 hrs by LC-MS/MS analysis; type: ADME, organism-based; parameters: time 0.083-24 hrs, dose 10 mg/kg, route po; details: in vivo
Huh-7 = assay: Antiproliferative activity against human Huh-7 cells incubated for 72 hrs by Cell counting kit 8 method; type: functional, cell-based; details: Huh-7, 72 h
[16] = Solubility of the compound in PBS buffer of pH7.4 at 10 mM measured after 2 hrs by LC-MS/MS analysis; type: physicochemical; details: pH 7.4
[17] = AUC (0 to t) in Sprague-Dawley rat measured at 2 mg/kg, iv for 0.083 to 24 hrs by LC-MS/MS analysis; type: ADME, organism-based; parameters: dose 2 mg/kg, time upper 24 hrs, time lower 0.083 hrs, route iv; details: in vivo
[18] = Volume of distribution at steady state in Sprague-Dawley rat measured at 2 mg/kg, iv for 0.083 to 24 hrs by LC-MS/MS analysis; type: ADME, organism-based; details: in vivo, time 0.083-24 hrs, read-out: Vdss
[19] = biological target: Fibroblast growth factor receptor 2 (Homo sapiens, UniProt P21802); assay: Inhibition of FGFR2 (unknown origin) incubated for 10 mins followed by substrate addition measured after 60 mins by ADP-Glo luminescence assay
[20] = Ionization constant, pKa of the compound in PBS buffer at pH 1.42 to 12.33 by electrochemical method; type: physicochemical
Hep 3B2 = assay: Antiproliferative activity against human Hep3B cells incubated for 72 hrs by Cell counting kit 8 method; type: functional, cell-based
[21] = Tmax in Sprague-Dawley rat measured at 2 mg/kg, iv for 0.083 to 24 hrs by LC-MS/MS analysis; type: ADME, organism-based; details: in vivo, time 0.083-24 hrs
[22] = AUC (0 to infinity) in Sprague-Dawley rat measured at 10 mg/kg, po for 0.083 to 24 hrs by LC-MS/MS analysis; type: ADME, organism-based; parameters: dose 10 mg/kg, time upper 24 hrs, time lower 0.083 hrs, route po; details: in vivo
[23] = biological target: Fibroblast growth factor receptor 3 (Homo sapiens, UniProt P22607); assay: Inhibition of FGFR3 (unknown origin) incubated for 10 mins followed by substrate addition measured after 60 mins by ADP-Glo luminescence assay
[24] = Half life in Sprague-Dawley rat measured at 10 mg/kg, po for 0.083 to 24 hrs by LC-MS/MS analysis; type: ADME, organism-based; details: in vivo, time 0.083-24 hrs
[25] = MRT (0 to infinity) in Sprague-Dawley rat measured at 2 mg/kg, iv for 0.083 to 24 hrs by LC-MS/MS analysis; type: ADME, organism-based; details: in vivo, time 0.083-24 hrs
[26] = biological target: T1, Fibroblast growth factor receptor 4; assay: Inhibition of FGFR4 (unknown origin) at 100 nM incubated for 10 mins followed by substrate addition measured after 60 mins by ADP-Glo luminescence assay relative to control; details: time 70.0 min
Target sequence in this assay (P22455 22-802 limits assumed): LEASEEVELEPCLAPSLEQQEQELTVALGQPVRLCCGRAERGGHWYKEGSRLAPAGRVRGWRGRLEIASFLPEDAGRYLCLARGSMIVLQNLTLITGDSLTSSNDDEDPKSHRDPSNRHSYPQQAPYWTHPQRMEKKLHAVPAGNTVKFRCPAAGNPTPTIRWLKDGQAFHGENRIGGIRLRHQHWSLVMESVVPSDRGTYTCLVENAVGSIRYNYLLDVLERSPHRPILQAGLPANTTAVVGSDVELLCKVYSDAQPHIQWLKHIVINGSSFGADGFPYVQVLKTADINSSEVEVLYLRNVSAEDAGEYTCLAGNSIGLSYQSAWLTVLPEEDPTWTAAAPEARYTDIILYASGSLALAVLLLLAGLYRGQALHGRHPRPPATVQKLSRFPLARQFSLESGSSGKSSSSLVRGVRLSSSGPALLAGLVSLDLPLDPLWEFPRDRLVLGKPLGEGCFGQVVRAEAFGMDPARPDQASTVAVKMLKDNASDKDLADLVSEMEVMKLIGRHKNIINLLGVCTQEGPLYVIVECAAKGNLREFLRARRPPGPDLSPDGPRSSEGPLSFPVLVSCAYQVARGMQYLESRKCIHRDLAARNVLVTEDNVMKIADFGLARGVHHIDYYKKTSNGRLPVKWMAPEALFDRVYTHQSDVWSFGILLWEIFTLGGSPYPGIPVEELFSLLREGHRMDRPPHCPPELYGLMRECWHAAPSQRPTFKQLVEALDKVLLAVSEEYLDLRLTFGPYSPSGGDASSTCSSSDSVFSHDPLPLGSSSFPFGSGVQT

Fibroblast growth factor receptor 3, sequence (P22607 whole entry): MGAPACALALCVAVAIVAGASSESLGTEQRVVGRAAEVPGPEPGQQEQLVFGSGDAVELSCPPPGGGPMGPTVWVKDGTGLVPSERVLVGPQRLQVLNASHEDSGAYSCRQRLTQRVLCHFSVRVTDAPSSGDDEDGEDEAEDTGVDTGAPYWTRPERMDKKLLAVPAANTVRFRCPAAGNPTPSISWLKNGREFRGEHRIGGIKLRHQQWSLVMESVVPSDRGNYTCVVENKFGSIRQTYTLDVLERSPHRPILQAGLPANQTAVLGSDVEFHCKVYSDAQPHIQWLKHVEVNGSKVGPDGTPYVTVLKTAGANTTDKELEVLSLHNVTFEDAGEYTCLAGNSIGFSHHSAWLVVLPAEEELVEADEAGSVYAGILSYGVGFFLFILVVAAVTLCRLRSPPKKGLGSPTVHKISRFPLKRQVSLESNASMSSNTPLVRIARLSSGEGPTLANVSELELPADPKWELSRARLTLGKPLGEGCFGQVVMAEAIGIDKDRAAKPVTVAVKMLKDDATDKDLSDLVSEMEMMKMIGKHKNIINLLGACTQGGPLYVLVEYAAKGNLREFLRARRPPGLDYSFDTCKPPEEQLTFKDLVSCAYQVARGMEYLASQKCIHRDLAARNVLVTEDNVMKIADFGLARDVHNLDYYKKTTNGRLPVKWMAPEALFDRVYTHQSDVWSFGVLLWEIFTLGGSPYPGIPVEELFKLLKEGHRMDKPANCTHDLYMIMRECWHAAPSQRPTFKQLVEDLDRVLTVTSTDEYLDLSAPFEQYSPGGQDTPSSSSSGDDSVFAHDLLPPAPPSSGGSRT
Fibroblast growth factor receptor 2, sequence (P21802 whole entry): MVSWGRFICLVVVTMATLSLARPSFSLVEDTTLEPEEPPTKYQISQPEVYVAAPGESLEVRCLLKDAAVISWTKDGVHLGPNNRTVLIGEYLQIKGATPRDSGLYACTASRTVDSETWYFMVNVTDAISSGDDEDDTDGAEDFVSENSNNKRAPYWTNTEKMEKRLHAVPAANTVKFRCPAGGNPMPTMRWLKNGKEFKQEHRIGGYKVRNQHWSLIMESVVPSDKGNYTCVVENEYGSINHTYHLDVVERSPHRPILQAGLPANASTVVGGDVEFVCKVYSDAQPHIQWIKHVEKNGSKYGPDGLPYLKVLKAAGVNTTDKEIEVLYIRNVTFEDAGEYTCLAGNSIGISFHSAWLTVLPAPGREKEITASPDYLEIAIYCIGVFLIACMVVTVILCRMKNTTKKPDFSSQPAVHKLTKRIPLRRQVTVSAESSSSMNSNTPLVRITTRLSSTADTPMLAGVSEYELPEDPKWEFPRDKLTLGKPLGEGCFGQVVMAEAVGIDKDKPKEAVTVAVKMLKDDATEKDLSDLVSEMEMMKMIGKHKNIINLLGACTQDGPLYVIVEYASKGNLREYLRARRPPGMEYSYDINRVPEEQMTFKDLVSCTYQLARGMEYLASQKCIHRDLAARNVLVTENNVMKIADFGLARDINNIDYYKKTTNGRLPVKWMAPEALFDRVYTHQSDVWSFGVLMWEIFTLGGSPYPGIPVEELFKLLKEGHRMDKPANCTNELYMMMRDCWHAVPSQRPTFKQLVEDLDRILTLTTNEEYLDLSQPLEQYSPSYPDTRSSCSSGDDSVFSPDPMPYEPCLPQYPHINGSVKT
Fibroblast growth factor receptor 1, sequence (P11362 whole entry): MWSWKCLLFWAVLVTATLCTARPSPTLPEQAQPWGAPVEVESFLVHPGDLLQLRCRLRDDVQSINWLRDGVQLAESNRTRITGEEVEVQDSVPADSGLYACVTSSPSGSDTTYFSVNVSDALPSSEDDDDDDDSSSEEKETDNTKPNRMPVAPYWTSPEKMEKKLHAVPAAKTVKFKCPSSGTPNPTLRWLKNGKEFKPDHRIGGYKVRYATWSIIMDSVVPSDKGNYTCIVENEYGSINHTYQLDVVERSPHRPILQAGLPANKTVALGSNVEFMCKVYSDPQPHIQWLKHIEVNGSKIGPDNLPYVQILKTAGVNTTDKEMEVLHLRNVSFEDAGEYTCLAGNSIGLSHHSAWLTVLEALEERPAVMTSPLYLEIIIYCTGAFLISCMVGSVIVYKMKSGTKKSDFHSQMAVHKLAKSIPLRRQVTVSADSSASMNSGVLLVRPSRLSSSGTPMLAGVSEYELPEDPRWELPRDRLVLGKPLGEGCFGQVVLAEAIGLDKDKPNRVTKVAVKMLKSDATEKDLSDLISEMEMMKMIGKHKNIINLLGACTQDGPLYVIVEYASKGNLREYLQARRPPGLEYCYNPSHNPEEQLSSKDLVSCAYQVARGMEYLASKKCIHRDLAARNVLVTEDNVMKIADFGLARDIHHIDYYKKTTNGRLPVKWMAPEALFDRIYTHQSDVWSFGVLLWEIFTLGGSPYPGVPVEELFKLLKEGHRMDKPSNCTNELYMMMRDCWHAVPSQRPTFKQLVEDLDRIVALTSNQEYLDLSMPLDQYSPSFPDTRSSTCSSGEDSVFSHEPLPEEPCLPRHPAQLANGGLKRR

- clearance [1]: 66 mL/min/kg
- MRT [2]: 85.2 min
- Cmax [3]: 1700 ng/mL
- bioavailability [4]: 43.7%
- Tmax [5]: 15 min
- MRT last [6]: 79.8 min
- IC50 [7]: 4.5 nM
- AUC(0-t) [8]: 1100 ng·h/mL
- AUC(0-inf) [9]: 506 ng·h/mL
- MRT last [10]: 9.6 min
- half-life [11]: 14.4 min
- C0 [12]: 3090 ng/mL
- IC50 [13]: 230 nM
- Papp at 16 h, 10 µM [14]: 1.11 ×10⁻⁶ cm/s
- Cmax [15]: 1680 ng/mL
- IC50 (Huh-7): 9.4 nM
- solubility at 2 h, 10000 µM [16]: < 0.073 µM
- AUC(0-t) [17]: 505 ng·h/mL
- Vd [18]: 0.659 L/kg
- IC50 [19]: 5.2 nM
- pKa [20]: 5.28
- Tmax [21]: 4.8 min
- AUC(0-inf) [22]: 1120 ng·h/mL
- IC50 [23]: 5.5 nM
- half-life [24]: 78 min
- MRT [25]: 10.2 min
Compound: C=CC(=O)N1CCC(c2cc3c(Oc4ccc(NC(=O)NC5CC5)c(Cl)c4)ccnc3cc2OCC)CC1
- IC50 (Hep 3B2): 17.4 nM

- IC50 [13]: 5.73 nM
- IC50 (Huh-7): 16.9 nM
Compound: C=CC(=O)N1CCC(c2cc3c(Oc4ccc(NC(=O)NC5CC5)c(Cl)c4)ccnc3cc2OC)C(C)C1 (stereo not given)
- IC50 (Hep 3B2): 13.3 nM

- IC50 [13]: 14.5 nM
- IC50 (Huh-7): 15.5 nM
Compound: C=CC(=O)N1CCC(c2cc3c(Oc4ccc(NC(=O)NC5CC5)c(Cl)c4)ccnc3cc2OCC(F)(F)F)CC1
- IC50 (Hep 3B2): 30.2 nM

- IC50 [13]: 4.6 nM
- IC50 (Huh-7): 26.1 nM
Compound: COc1cc2nccc(Oc3ccc(NC(=O)NC4CC4)c(Cl)c3)c2cc1C1CCN(C(=O)/C=C/CN(C)C)CC1
- IC50 (Hep 3B2): 30 nM

- IC50 (Huh-7): > 10000 nM
- inhibition [26]: 21.6%
Compound: C=C(F)C(=O)N1CCC(c2cc3c(Oc4ccc(NC(=O)NC5CC5)c(Cl)c4)ccnc3cc2OC)CC1
- IC50 (Hep 3B2): > 10000 nM

- IC50 [13]: 2.49 nM
- IC50 (Huh-7): 1520 nM
Compound: C=CC(=O)N1CC=C(c2cc3c(Oc4ccc(NC(=O)NC5CC5)c(Cl)c4)ccnc3cc2OC)C1
- IC50 (Hep 3B2): 438 nM

- IC50 [13]: 2.88 nM
- IC50 (Huh-7): 54.3 nM
Compound: C=CC(=O)N1CC=C(c2cc3c(Oc4ccc(NC(=O)NC5CC5)c(Cl)c4)ccnc3cc2OC)CC1
- IC50 (Hep 3B2): 66.2 nM

- IC50 (Huh-7): > 10000 nM
Compound: C=CC(=O)N1CCC(c2cc3c(Oc4ccc(/N=C5\CCCN5C)c(Cl)c4)ccnc3cc2OC)CC1
- IC50 (Hep 3B2): > 10000 nM

- IC50 (Huh-7): 114 nM
- inhibition [26]: 24%
Compound: C=CC(=O)N1CCC(c2cc3c(Oc4ccc5c(C(=O)NC)cccc5c4)ccnc3cc2OC)CC1
- IC50 (Hep 3B2): 125 nM

- IC50 (Huh-7): > 10000 nM
- inhibition [26]: 15.3%
Compound: C=CC(=O)N1CCC(c2cc3c(Nc4ccc(F)c(Cl)c4)ccnc3cc2OC)CC1
- IC50 (Hep 3B2): > 10000 nM

- IC50 (Huh-7): > 10000 nM
- inhibition [26]: -2.1%
Compound: C=CC(=O)N1CCC(c2cc3c(Oc4ccc(NC(=O)C5(C(=O)Nc6ccc(F)cc6)CC5)cc4)ccnc3cc2OC)CC1
- IC50 (Hep 3B2): 3930 nM

- IC50 [13]: 294 nM
- IC50 (Huh-7): > 10000 nM
Compound: COc1cc2nccc(Oc3ccc(NC(=O)NC4CC4)c(Cl)c3)c2cc1C1=CCN(C(=O)CCl)CC1
- IC50 (Hep 3B2): 1660 nM

- IC50 (Huh-7): > 10000 nM
- inhibition [26]: 25.9%
Compound: C=CC(=O)N1CCC(c2cc3nccc(Oc4ccc(NC(=O)NC5CC5)c(Cl)c4)c3cc2OC)CC1
- IC50 (Hep 3B2): > 10000 nM

- IC50 (Huh-7): 1410 nM
- inhibition [26]: 25.6%
Compound: COc1cc2nccc(Oc3ccc(NC(=O)NC4CC4)c(Cl)c3)c2cc1C1CCN(C(=O)C(F)(F)F)CC1
- IC50 (Hep 3B2): > 10000 nM
